Tests used:
[1] = biological target: T1, hTLR8 (Homo sapiens, UniProt Q9NR97); assay: Human TLR8 Reporter Assay; assay type: cell-based; conditions: HEK-Blue hTLR8 cells, 16 hours, normalized to tl8-506 (1 μM) and DMSO
T1 construct: host or cells: HEK-Blue hTLR8 cells (HEK293-derived, own knowledge)
T1 sequence (Q9NR97 27-1041): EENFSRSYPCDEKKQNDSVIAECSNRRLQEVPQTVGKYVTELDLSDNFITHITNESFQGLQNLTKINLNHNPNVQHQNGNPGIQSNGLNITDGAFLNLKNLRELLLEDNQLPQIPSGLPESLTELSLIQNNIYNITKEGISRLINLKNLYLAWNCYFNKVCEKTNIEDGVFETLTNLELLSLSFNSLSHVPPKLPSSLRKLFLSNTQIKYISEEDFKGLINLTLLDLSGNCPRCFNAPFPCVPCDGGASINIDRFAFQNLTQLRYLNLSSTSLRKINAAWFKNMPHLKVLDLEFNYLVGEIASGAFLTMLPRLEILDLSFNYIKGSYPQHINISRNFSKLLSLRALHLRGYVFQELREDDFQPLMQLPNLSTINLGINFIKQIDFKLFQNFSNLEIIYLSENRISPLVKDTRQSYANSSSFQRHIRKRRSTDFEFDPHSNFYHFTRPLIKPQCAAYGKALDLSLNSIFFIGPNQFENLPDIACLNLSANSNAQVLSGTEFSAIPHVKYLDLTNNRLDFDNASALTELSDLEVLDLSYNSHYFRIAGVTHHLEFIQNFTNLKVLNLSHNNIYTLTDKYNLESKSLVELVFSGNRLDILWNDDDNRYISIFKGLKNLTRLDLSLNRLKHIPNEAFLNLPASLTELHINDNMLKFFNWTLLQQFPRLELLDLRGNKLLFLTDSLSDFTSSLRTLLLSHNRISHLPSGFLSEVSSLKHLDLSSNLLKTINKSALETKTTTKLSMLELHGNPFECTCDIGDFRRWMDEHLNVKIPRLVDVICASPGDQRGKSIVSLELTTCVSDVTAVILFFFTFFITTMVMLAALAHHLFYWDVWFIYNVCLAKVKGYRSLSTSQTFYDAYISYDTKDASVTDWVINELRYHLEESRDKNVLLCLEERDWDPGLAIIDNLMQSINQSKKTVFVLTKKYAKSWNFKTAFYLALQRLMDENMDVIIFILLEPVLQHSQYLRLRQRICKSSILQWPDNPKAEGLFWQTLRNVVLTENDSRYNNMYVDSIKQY
Protocol: (§1) HEK-Blue™ hTLR8 cells (Invivogen, San Diego, Calif.) were maintained at 37° C./5% CO2/90% relative humidity in Dulbecco's Modified Eagle's Medium with 10% fetal bovine serum, 100 units/mL penicillin, 100 μg/mL streptomycin, 100 μg/mL normocin, 10 μg/mL blasticidin, and 100 μg/mL zeocin. HEK-Blue™ hTLR8 cells were maintained at 10-90% confluence and used before passage 20. For this assay, test compounds were dissolved in DMSO, and 10-point serial 3-fold dilution series in DMSO were prepared in Echo Qualified 384-well Polypropylene Microplates (Labcyte, San Jose, Calif.). Assay plates (384-well flat, clear bottom, black polystyrene TC-treated microtiter plates; Corning, Corning, N.Y.) were prepared by dispensing 150 nL of test compounds, high control (tl8-506; Invivogen, San Diego, Calif.), and low control (DMSO) by ECHO acoustic dispenser (Labcyte, San Jose Calif.) followed by addition of 5 μL of HEK-Blue™ Detection assay media (Invivogen, San Diego, Calif.). HEK-Blue™ hTLR8 cells in HEK-Blue™ Detection assay media (20,000 cells per well in 45 μL of media) were added to the assay plate and incubated for 16 hours at 37° C./5% CO2/90% relative humidity. For detection, assay plates were removed from the incubator, allowed to cool to ambient temperature, centrifuged at 200×g for 1 minutes, and read with an EnSpire Multimode Plate Reader (Perkin Elmer, Waltham, Mass.) for absorbance at 620 nm. Test compound effects were normalized to the window defined by the controls, tl8-506 (1 μM), and DMSO. Calculated % effects were fit using a 4-parameter algorithm, and EC50 was reported.

[2] = biological target: T2, hTLR7 (Homo sapiens, UniProt Q9NYK1); assay: Human TLR7 Reporter Assay; assay type: cell-based; conditions: HEK-Blue hTLR7 cells, 16 hours, normalized to CL097 (6 μM) and DMSO
T2 construct: host or cells: HEK-Blue hTLR7 cells (HEK293-derived, own knowledge)
T2 sequence (Q9NYK1 27-1049): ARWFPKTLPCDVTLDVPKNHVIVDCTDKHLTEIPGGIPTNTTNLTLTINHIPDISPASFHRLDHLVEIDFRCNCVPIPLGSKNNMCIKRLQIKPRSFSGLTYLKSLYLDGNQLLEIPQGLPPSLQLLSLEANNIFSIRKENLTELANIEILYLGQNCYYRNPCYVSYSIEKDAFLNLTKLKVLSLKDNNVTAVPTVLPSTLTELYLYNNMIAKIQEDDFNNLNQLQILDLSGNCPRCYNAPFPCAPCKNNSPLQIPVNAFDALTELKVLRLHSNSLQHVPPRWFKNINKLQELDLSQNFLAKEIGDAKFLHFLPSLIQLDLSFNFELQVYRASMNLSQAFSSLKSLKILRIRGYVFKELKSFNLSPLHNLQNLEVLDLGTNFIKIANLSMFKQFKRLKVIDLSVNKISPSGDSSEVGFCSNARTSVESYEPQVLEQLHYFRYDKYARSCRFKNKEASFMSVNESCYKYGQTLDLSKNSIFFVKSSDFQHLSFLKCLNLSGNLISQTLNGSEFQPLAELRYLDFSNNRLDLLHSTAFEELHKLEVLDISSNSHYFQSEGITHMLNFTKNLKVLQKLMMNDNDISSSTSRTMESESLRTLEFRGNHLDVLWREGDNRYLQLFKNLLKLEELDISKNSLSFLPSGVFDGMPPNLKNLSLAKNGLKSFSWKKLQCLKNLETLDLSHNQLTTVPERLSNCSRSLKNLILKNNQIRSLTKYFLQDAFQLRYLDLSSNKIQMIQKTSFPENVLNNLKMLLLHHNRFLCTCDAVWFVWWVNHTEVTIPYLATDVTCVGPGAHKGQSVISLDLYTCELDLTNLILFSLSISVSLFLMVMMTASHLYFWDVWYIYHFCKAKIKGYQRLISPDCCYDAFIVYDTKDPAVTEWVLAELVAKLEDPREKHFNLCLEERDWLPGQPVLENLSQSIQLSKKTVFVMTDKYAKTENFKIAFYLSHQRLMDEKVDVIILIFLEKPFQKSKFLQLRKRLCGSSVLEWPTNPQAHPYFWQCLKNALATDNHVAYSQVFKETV
Protocol: as §1, with “hTLR7” for “hTLR8”, “(CL097;” for “(tl8-506;”, “CL097 (6” for “tl8-506 (1”

EC50 [1] | EC50 [2] | Compound
1160 nM | 653 nM | CCCCNc1nc(N)nc2cn(Cc3c(OC)cc(CN4CC(N)C4)cc3OC)nc12 [Compound 192]
2600 nM | 154 nM | CCCCNc1nc(N)nc2cn(Cc3ccc(C4CCCN4)cc3OC)nc12 (stereo not shown) [Compound 239]
19900 nM | 1570 nM | CCCCNc1nc(N)nc2cn(Cc3ccc(CN4CCNCC4)cc3)nc12 [Compound 112]
2870 nM | 241 nM | CCCCNc1nc(N)nc2cn(Cc3ccc(C4CCCN4)cc3OC)nc12 (stereo not shown) [Compound 236]
942 nM | 717 nM | CCCCNc1nc(N)nc2cn(Cc3ccc(CCN)cc3OC)nc12 [Compound 139]
2230 nM | 4750 nM | CCC[C@@H](CO)Nc1nc(N)nc2cn(Cc3c(OC)cc(CN(C)CCN)cc3OC)nc12 [Compound 213]
2470 nM | 361 nM | CCCCNc1nc(N)nc2cn(Cc3ccc4c(c3)CCC4N)nc12 (stereo not shown) [Compound 235]
9820 nM | 1490 nM | CCCCNc1nc(N)nc2cn(Cc3ccc(C4CNCCN4)cc3OC)nc12 (stereo not shown) [Compound 234]
3810 nM | 170 nM | CCCCNc1nc(N)nc2cn(Cc3ccc(NCCCN)cn3)nc12 [Compound 144]
809 nM | 476 nM | CCCCNc1nc(N)nc2cn(Cc3ncc(CNC)cc3OC)nc12 [Compound 163]
8140 nM | 7750 nM | CCCCNc1nc(N)nc2cn(Cc3nnco3)nc12 [Compound 212]
11400 nM | 2270 nM | CCCCNc1nc(N)nc2cn(Cc3ccc(C(N)CCN)cc3OC)nc12 (stereo not shown) [Compound 229]
> 9980 nM | 1370 nM | CNc1nc(N)nc2cn(Cc3c(OC)cccc3OC)nc12 [Compound 43]
99.8 nM | 91.9 nM | CCCCNc1nc(N)nc2cn(Cc3c(OC)cc(CNC)cc3OC)nc12 [Compound 109]
1070 nM | 6280 nM | CCC[C@@H](CO)Nc1nc(N)nc2cn(Cc3c(OC)cc(C(C)N)cc3OC)nc12 (stereo partly shown) [Compound 222]
6320 nM | 2270 nM | CCCCNc1nc(N)nc2cn(Cc3ccc(CN4CC(CNC)C4)cc3OC)nc12 [Compound 145]

EC50 [1] | EC50 [2] | Compound
1880 nM | 254 nM | CCCCNc1nc(N)nc2cn(Cc3ccc4c(c3)CCC4N)nc12 (stereo not shown) [Compound 238]
8840 nM | 898 nM | CCCCNc1nc(N)nc2cn(Cc3c(OC)cc(SC[C@H](N)C(=O)O)cc3OC)nc12 [Compound 230]
> 3330 nM | 360 nM | CCCCNc1nc(N)nc2cn(Cc3cc(OC)c(CN(C)CCCN4C(=O)C=CC4=O)cc3OC)nc12 [Compound 143]
137 nM | 139 nM | CCCCNc1nc(N)nc2cn(Cc3ccc(C(C)NC)cc3OC)nc12 (stereo not shown) [Compound 194]
4060 nM | 1850 nM | C=CCN(C)Cc1nc(Cn2cc3nc(N)nc(NCCCC)c3n2)c(C)o1 [Compound 169]
392 nM | 281 nM | CCCCNc1nc(N)nc2cn(Cc3c(OC)cc(CCN)cc3OC)nc12 [Compound 67]
734 nM | 370 nM | CCC[C@@H](CO)Nc1nc(N)nc2cn(Cc3ccccc3OC)nc12 [Compound 130]
161 nM | 200 nM | CCCCNc1nc(N)nc2cn(Cc3c(OC)cc(C(C)NC)cc3OC)nc12 (stereo not shown) [Compound 209]
370 nM | 55.9 nM | C=CCN(C)Cc1cnc(Cn2cc3nc(N)nc(NCCCC)c3n2)c(OC)c1 [Compound 157]
103 nM | 382 nM | C=CCN(C)Cc1cnc(Cn2cc3nc(N)nc(N[C@H](CO)CCC)c3n2)c(OC)c1 [Compound 185]
168 nM | 110 nM | CCCC(C)Nc1nc(N)nc2cn(Cc3c(OC)cc(CNC)cc3OC)nc12 (stereo not shown) [Compound 164]
265 nM | 180 nM | CCCCNc1nc(N)nc2cn(Cc3ccc(CCNC)cc3OC)nc12 [Compound 147]
198 nM | 365 nM | CCCCNc1nc(N)nc2cn(Cc3c(OC)cc(C(C)NC)cc3OC)nc12 (stereo not shown) [Compound 211]
1780 nM | 191 nM | CCCCNc1nc(N)nc2cn(Cc3ccc(C4CCNCC4)nc3OC)nc12 [Compound 138]
2220 nM | 112 nM | C=CC(=O)NC[C@H]1CC[C@H](C(=O)N2CCN(c3ccc(Cn4cc5nc(N)nc(NCCCC)c5n4)c(OC)c3)CC2)CC1 [Compound 120]
91.7 nM | 51.7 nM | CCCCNc1nc(N)nc2cn(Cc3ccc(C(C)NCCC)cc3OC)nc12 (stereo not shown) [Compound 217]

Reference: patent US20230219962A1, “PYRAZOLO[4,3-d]PYRIMIDINE DERIVATIVES AND METHODS OF USE THEREOF FOR THE TREATMENT OF CELLULAR PROLIFERATIVE DISORDERS” (Merck Sharp & Dohme LLC, priority 2020, published 2023)
